In PMC12584665, “In vitro and in vivo efficacy of vancomycin against Elizabethkingia species and the impact of increased vancomycin MICs” (Microbiology Spectrum, 2025):
≈ marks a conversion by molar mass, not a printed value.

How the values were obtained:
[1] = system: Elizabethkingia anophelis; test: Etest MIC; assay type: cell-based
Description: Eighteen E. anophelis clinical isolates from the nationwide surveillance program (Taiwan Surveillance of Antimicrobial Resistance) were well characterized in our previous study ([7]) and were selected for susceptibility testing and minimum bactericidal concentration (MBC) assays. Among them, five isolates with different clonality (underlined strains in Fig. S1) were selected for the time-kill assays and in vivo experiments.
Broth microdilution, disc diffusion, Etest, and agar dilution assays were conducted following CLSI guidelines to determine vancomycin MICs ([8]). […] Criteria for Staphylococcus spp. were not adopted due to the lack of a zone diameter breakpoint. MBCs were determined following CLSI guidelines ([8]).

[2] = system: Acinetobacter baumannii (LAC-4); test: Murine pneumonia model (model validation); assay type: in vivo, C57BL/6J mice; conditions: 8 mice per group
Description: For the pneumonia model, a bacterial suspension was mixed with 5% mucin from porcine stomach (type 3; Sigma-Aldrich, Saint Louis, USA). Seven-week-old C57BL/6J mice were anesthetized with isoflurane for 10 min. For each strain, the inoculum corresponded to the lowest dose that caused >80% mortality in preliminary testing. This inoculum (10⁶–10⁸ cfu, depending on strain) was delivered intratracheally to induce pneumonia. Two hours thereafter, mice received either high or human-equivalent doses of subcutaneous vancomycin (100 mg/kg or 25 mg/kg, respectively) or intraperitoneal teicoplanin (50 mg/kg) ([17]) twice daily for 3 days. Each group contained eight mice, and survival was monitored for 3 days.

## CN[C@H](CC(C)C)C(=O)N[C@H]1C(=O)N[C@@H](CC(N)=O)C(=O)N[C@H]2C(=O)N[C@H]3C(=O)N[C@H](C(=O)N[C@H](C(=O)O)c4cc(O)cc(O)c4-c4cc3ccc4O)[C@H](O)c3ccc(c(Cl)c3)Oc3cc2cc(c3O[C@@H]2O[C@H](CO)[C@@H](O)[C@H](O)[C@H]2O[C@H]2C[C@](C)(N)[C@H](O)[C@H](C)O2)Oc2ccc(cc2Cl)[C@H]1O [Vancomycin]
[1]; E. anophelis clinical isolate 2008N05-106
  MIC: 24 µg/mL (≈ 16.6 µM)
[1]; E. anophelis clinical isolate 2008S01-229
  MIC: 16 µg/mL (≈ 11 µM)
[1]; E. anophelis clinical isolate 2014C06-157
  MIC: 16 µg/mL (≈ 11 µM)
[1]; E. anophelis clinical isolate 2016N17-576
  MIC: 16 µg/mL (≈ 11 µM)
[1]; E. anophelis clinical isolate 2018C04-213
  MIC: 16 µg/mL (≈ 11 µM)
[1]; E. anophelis clinical isolate 2018C04-224
  MIC: 16 µg/mL (≈ 11 µM)
[1]; E. anophelis clinical isolate 2018C07-210
  MIC: 16 µg/mL (≈ 11 µM)
[1]; E. anophelis clinical isolate 2018C07-234
  MIC: 16 µg/mL (≈ 11 µM)
[1]; E. anophelis clinical isolate 2018C08-127
  MIC: 16 µg/mL (≈ 11 µM)
[1]; E. anophelis clinical isolate 2018E03-151
  MIC: 16 µg/mL (≈ 11 µM)
[1]; E. anophelis clinical isolate 2018E04-135
  MIC: 16 µg/mL (≈ 11 µM)
[1]; E. anophelis clinical isolate 2018N16-057
  MIC: 16 µg/mL (≈ 11 µM)
[1]; E. anophelis clinical isolate 2018N17-036
  MIC: 16 µg/mL (≈ 11 µM)
[1]; E. anophelis clinical isolate 2018N17-073
  MIC: 16 µg/mL (≈ 11 µM)
[1]; E. anophelis clinical isolate 2018N17-153
  MIC: 16 µg/mL (≈ 11 µM)
[1]; E. anophelis clinical isolate 2018N21-226
  MIC: 24 µg/mL (≈ 16.6 µM)
[1]; E. anophelis clinical isolate 2018S09-023
  MIC: 16 µg/mL (≈ 11 µM)
[1]; E. anophelis clinical isolate 2018S11-172
  MIC: 32 µg/mL (≈ 22.1 µM)
[2]; 100 mg/kg subcutaneous twice daily
  survival of A. baumannii-infected mice: did not improve the survival
[2]; 25 or 100 mg/kg subcutaneous twice daily, A. baumannii LAC-4
  activity in A. baumannii pneumonia model: Lack of vancomycin (VAN) activity
